In brackets after ≈: the same amount, converted by molar mass.
How the values were obtained:
[1] = from CO[C@](C)(C[C@@H](C)CN(C)[C@H](CO)CNC(=O)OCc1ccccc1)[C@H](O[C@@H]1O[C@H](C)C[C@H](N(C)C)[C@H]1OC(=O)c1ccccc1)[C@@H](C)C1=C(C)C(=O)OC(C)(C)O1; ester bond; chlorobenzene; 4.0 mM; 165.0 °C; 20.0 h
K. pneumoniae MP-546 = assay: MIC determination by CLSI broth dilution, K. pneumoniae MP-546; assay type: cell-based; conditions: Klebsiella pneumoniae, MP546, CLSI broth dilution; strain MP-546
A. baumannii MP-15 = assay: MIC determination by CLSI broth dilution, A. baumannii MP-15; assay type: cell-based; conditions: Acinetobacter baumannii, MP15, strain MP-15, read-out: MIC A. baumanii MP-15
P. aeruginosa MP-3 = assay: MIC determination by CLSI broth dilution, P. aeruginosa MP-3; assay type: cell-based; conditions: Pseudomonas aeruginosa, MP3, strain MP-3
S. aureus MP-12 = assay: microbe, parasite or virus in culture; assay type: cell-based; conditions: Staphylococcus aureus, MP12, read-out: MIC S. aureus MP-12
K. pneumoniae MP-648 = assay: MIC determination by CLSI broth dilution, K. pneumoniae MP-648; assay type: cell-based; conditions: strain MP-648; for MIC: Klebsiella pneumoniae, MP648, CLSI broth dilution
E. coli MP-4 = assay: MIC determination by CLSI broth dilution, E. coli MP-4; assay type: cell-based; conditions: Escherichia coli, MP4, CLSI broth dilution; strain MP-4

| SMILES | ring closure, yield of all isomers [1] | MIC (K. pneumoniae MP-546) | MIC (A. baumannii MP-15) | MIC (P. aeruginosa MP-3) | MIC (S. aureus MP-12) | MIC (K. pneumoniae MP-648) | MIC (E. coli MP-4) | MIC K. pneumoniae MP-648 (K. pneumoniae MP-648; CLSI broth dilution) |
| --- | --- | --- | --- | --- | --- | --- | --- | --- |
| CO[C@]1(C)C[C@@H](C)CN(C)[C@@H](CNC(=O)OCc2ccccc2)COC(=O)C(C)C(=O)[C@H](C)[C@H]1O[C@@H]1O[C@H](C)C[C@H](N(C)C)[C@H]1OC(=O)c1ccccc1 (stereo partly shown) | 82% | – | – | – | – | – | – | – |
| CCCN1C[C@H](C)C[C@@](C)(OC)[C@H](O[C@@H]2O[C@H](C)C[C@H](N(C)C)[C@H]2O)[C@@H](C)C(=O)C(C)(C)C(=O)OC[C@H]1CCCN1CCCC1 [Compound 144, (3R,6R,8R,9R,10R)-9-(((2S,3R,4S,6R)-4-(dimethylamino)-3-hydroxy-6-methyltetrahydro-2H-pyran-2-yl)oxy)-8-methoxy-6,8,10,12,12-pentamethyl-4-propyl-3-(3-(pyrrolidin-1-yl)propyl)-1-oxa-4-azacyclotridecane-11,13-dione] | – | < 4 µg/mL | > 32 µg/mL | < 4 µg/mL | < 4 µg/mL | < 4 µg/mL | < 4 µg/mL | – |
| CCCN1C[C@H](C)C[C@@](C)(OC)[C@H](O[C@@H]2O[C@H](C)C[C@H](N(C)C)[C@H]2O)[C@@H](C)C(=O)C(C)(C)C(=O)OC[C@H]1CCCN1Cc2ccccc2C1 [Compound 145, (3R,6R,8R,9R,10R)-9-(((2S,3R,4S,6R)-4-(dimethylamino)-3-hydroxy-6-methyltetrahydro-2H-pyran-2-yl)oxy)-3-(3-(isoindolin-2-yl)propyl)-8-methoxy-6,8,10,12,12-pentamethyl-4-propyl-1-oxa-4-azacyclotridecane-11,13-dione] | – | < 4 µg/mL | > 32 µg/mL | < 4 µg/mL | < 4 µg/mL | < 4 µg/mL | < 4 µg/mL | – |
| CCN1C[C@H](C)C[C@@](C)(OC)[C@H](O[C@@H]2O[C@H](C)C[C@H](N(C)C)[C@H]2O)[C@@H](C)C(=O)C(C)(C)C(=O)OC[C@H]1[C@H](O)CCN1CCCC1 [Compound 146] | – | < 4 µg/mL | > 32 µg/mL | > 32 µg/mL | 4 to 32 µg/mL (≈ 6.23 to 49.9 µM) | < 4 µg/mL | < 4 µg/mL | – |
| CCN1C[C@H](C)C[C@@](C)(OC)[C@H](O[C@@H]2O[C@H](C)C[C@H](N(C)C)[C@H]2O)[C@@H](C)C(=O)C(C)(C)C(=O)OC[C@H]1[C@@H](CCN1CCCC1)OC [Compound 147] | – | 4 to 32 µg/mL (≈ 6.1 to 48.8 µM) | > 32 µg/mL | > 32 µg/mL | 4 to 32 µg/mL (≈ 6.1 to 48.8 µM) | 4 to 32 µg/mL (≈ 6.1 to 48.8 µM) | < 4 µg/mL | – |
| CO[C@]1(C)C[C@@H](C)CN(C)[C@H](CC2=CCN(CC3CC3)CC2)COC(=O)C(C)(C)C(=O)[C@H](C)[C@H]1O[C@@H]1O[C@H](C)C[C@H](N(C)C)[C@H]1O [Compound 148] | – | 4 to 32 µg/mL (≈ 6.15 to 49.2 µM) | > 32 µg/mL | > 32 µg/mL | 4 to 32 µg/mL (≈ 6.15 to 49.2 µM) | 4 to 32 µg/mL (≈ 6.15 to 49.2 µM) | < 4 µg/mL | – |
| CCCN1CCC(=C[C@@H]2COC(=O)C(C)(C)C(=O)[C@H](C)[C@@H](O[C@@H]3O[C@H](C)C[C@H](N(C)C)[C@H]3O)[C@](C)(OC)C[C@@H](C)CN2C)CC1 [Compound 149] | – | < 4 µg/mL | > 32 µg/mL | > 32 µg/mL | < 4 µg/mL | < 4 µg/mL | < 4 µg/mL | – |
| CO[C@]1(C)C[C@@H](C)CN(C)[C@H](C=C2CCN(CC3CC3)CC2)COC(=O)C(C)(C)C(=O)[C@H](C)[C@H]1O[C@@H]1O[C@H](C)C[C@H](N(C)C)[C@H]1O [Compound 150] | – | < 4 µg/mL | > 32 µg/mL | > 32 µg/mL | 4 to 32 µg/mL (≈ 6.15 to 49.2 µM) | 4 to 32 µg/mL (≈ 6.15 to 49.2 µM) | < 4 µg/mL | – |
| CO[C@]1(C)C[C@@H](C)CN(C)[C@@H](CCCN2CCC2)COC(=O)C(C)(C)C(=O)[C@H](C)[C@H]1O[C@@H]1O[C@H](C)C[C@H](N(C)C)[C@H]1O [Compound 160, (3S,6R,8R,9R,10R)-3-(3-(azetidin-1-yl)propyl)-9-(((2S,3R,4S,6R)-4-(dimethylamino)-3-hydroxy-6-methyltetrahydro-2H-pyran-2-yl)oxy)-8-methoxy-4,6,8,10,12,12-hexamethyl-1-oxa-4-azacyclotridecane-11,13-dione] | – | < 4 µg/mL | > 32 µg/mL | > 32 µg/mL | 4 to 32 µg/mL (≈ 6.69 to 53.5 µM) | 4 to 32 µg/mL (≈ 6.69 to 53.5 µM) | < 4 µg/mL | – |
| CO[C@]1(C)C[C@@H](C)CN(C)[C@H](CCCN2CCCC2)COC(=O)C(C)(C)C(=O)[C@H](C)[C@H]1O[C@@H]1O[C@H](C)C[C@H](N(C)C)[C@H]1O [Compound 161, (3R,6R,8R,9R,10R)-9-(((2S,3R,4S,6R)-4-(dimethylamino)-3-hydroxy-6-methyltetrahydro-2H-pyran-2-yl)oxy)-8-methoxy-4,6,8,10,12,12-hexamethyl-3-(3-(pyrrolidin-1-yl)propyl)-1-oxa-4-azacyclotridecane-11,13-dione] | – | < 4 µg/mL | > 32 µg/mL | 4 to 32 µg/mL (≈ 6.54 to 52.3 µM) | < 4 µg/mL | < 4 µg/mL | < 4 µg/mL | – |
| CCN(C)CC[C@@H](O)[C@@H]1COC(=O)C(C)(C)C(=O)[C@H](C)[C@@H](O[C@@H]2O[C@H](C)C[C@H](N(C)C)[C@H]2O)[C@](C)(OC)C[C@@H](C)CN1CC [Compound 168] | – | 4 to 32 µg/mL (≈ 6.35 to 50.8 µM) | > 32 µg/mL | > 32 µg/mL | 4 to 32 µg/mL (≈ 6.35 to 50.8 µM) | < 4 µg/mL | < 4 µg/mL | – |
| CCCCCCCN1CCC(C[C@@H]2COC(=O)[C@@](C)(Cc3ccccc3)C(=O)[C@H](C)[C@@H](O[C@@H]3O[C@H](C)C[C@H](N(C)C)[C@H]3O)[C@](C)(OC)C[C@@H](C)CN2C)CC1 [Compound 171] | – | 4 to 32 µg/mL (≈ 5.18 to 41.4 µM) | > 32 µg/mL | > 32 µg/mL | 4 to 32 µg/mL (≈ 5.18 to 41.4 µM) | 4 to 32 µg/mL (≈ 5.18 to 41.4 µM) | < 4 µg/mL | – |
| C=C(C)C[C@]1(C)C(=O)OC[C@@H](CC2CCN(CCCCCCC)CC2)N(C)C[C@H](C)C[C@@](C)(OC)[C@H](O[C@@H]2O[C@H](C)C[C@H](N(C)C)[C@H]2O)[C@@H](C)C1=O [Compound 172] | – | 4 to 32 µg/mL (≈ 5.43 to 43.5 µM) | > 32 µg/mL | > 32 µg/mL | 4 to 32 µg/mL (≈ 5.43 to 43.5 µM) | – | 4 to 32 µg/mL (≈ 5.43 to 43.5 µM) | ++ (values of greater than 4 mg/L and less than or equal to 32 mg/L) |
| CCCCCCCN1CCC(C[C@@H]2COC(=O)[C@@](C)(Cl)C(=O)[C@H](C)[C@@H](O[C@@H]3O[C@H](C)C[C@H](N(C)C)[C@H]3O)[C@](C)(OC)C[C@@H](C)CN2C)CC1 [Compound 173] | – | < 4 µg/mL | > 32 µg/mL | > 32 µg/mL | > 32 µg/mL | 4 to 32 µg/mL (≈ 5.58 to 44.7 µM) | < 4 µg/mL | – |
| CCCCCCCN1CCC(C[C@@H]2COC(=O)[C@@](C)(CCC)C(=O)[C@H](C)[C@@H](O[C@@H]3O[C@H](C)C[C@H](N(C)C)[C@H]3O)[C@](C)(OC)C[C@@H](C)CN2C)CC1 [Compound 174] | – | 4 to 32 µg/mL (≈ 5.52 to 44.2 µM) | > 32 µg/mL | > 32 µg/mL | 4 to 32 µg/mL (≈ 5.52 to 44.2 µM) | 4 to 32 µg/mL (≈ 5.52 to 44.2 µM) | < 4 µg/mL | – |
| CCCCCCCN1CCC(C[C@@H]2COC(=O)[C@@](C)(COC)C(=O)[C@H](C)[C@@H](O[C@@H]3O[C@H](C)C[C@H](N(C)C)[C@H]3O)[C@](C)(OC)C[C@@H](C)CN2C)CC1 [Compound 176] | – | < 4 µg/mL | > 32 µg/mL | > 32 µg/mL | > 32 µg/mL | 4 to 32 µg/mL (≈ 5.51 to 44.1 µM) | < 4 µg/mL | – |
| CCCN1C[C@H](C)C[C@@](C)(OC)[C@H](O[C@@H]2O[C@H](C)C[C@H](N(C)C)[C@H]2O)[C@@H](C)C(=O)C(C)(C)C(=O)OC[C@H]1CCCN1CCc2ncncc2C1 [Compound 182, (3R,6R,8R,9R,10R)-3-(3-(7,8-dihydropyrido[4,3-d]pyrimidin-6 (5H)-yl)propyl)-9-(((2S,3R,4S,6R)-4-(dimethylamino)-3-hydroxy-6-methyltetrahydro-2H-pyran-2-yl)oxy)-8-methoxy-6,8,10,12,12-pentamethyl-4-propyl-1-oxa-4-azacyclotridecane-11,13-dione] | – | 4 to 32 µg/mL (≈ 5.68 to 45.5 µM) | > 32 µg/mL | > 32 µg/mL | 4 to 32 µg/mL (≈ 5.68 to 45.5 µM) | 4 to 32 µg/mL (≈ 5.68 to 45.5 µM) | < 4 µg/mL | – |
